Experimental data as given in patent US20140024527A1, “HERBICIDAL PYRAZINONES” (E I DU DE NEMOURS AND COMPANY, priority 2011, published 2014).

Legend:
Assay in all cases: Test B postemergence
Assay type in all cases: in vivo
Settings in all cases: scale 0 to 100
[1] = test system: blackgrass (Alopecurus myosuroides)
Text: (§1) Seeds of plant species selected from blackgrass (Alopecurus myosuroides), downy bromegrass (Bromus tectorum), green foxtail (Setaria viridis), Italian ryegrass (Lolium multiflorum), wheat (Triticum aestivum), wild oat (Avena fatua), galium (Galium aparine), bermudagrass (Cynodon dactylon), Surinam grass (Brachiaria decumbens), cocklebur (Xanthium strumarium), corn (Zea mays), large crabgrass (Digitaria sanguinalis), woolly cupgrass (Eriochloa villosa), giant foxtail (Setaria faberii), goosegrass (Eleusine indica), johnsongrass (Sorghum halepense), kochia (Kochia scoparia), lambsquarters (Chenopodium album), morningglory (Ipomoea coccinea), yellow nutsedge (Cyperus esculentus), pigweed (Amaranthus retroflexus), ragweed (Ambrosia elatior), soybean (Glycine max), velvetleaf (Abutilon theophrasti), barley (Hordeum vulgare), canarygrass (Phalaris minor), chickweed (Stellaria media), deadnettle (Lamium amplexicaule) and windgrass (Apera spica-venti) were planted in pots containing Redi-Earth® planting medium (Scotts Company, Marysville, Ohio, USA) comprising spaghnum peat moss, vermiculite, wetting agent and starter nutrients and treated postemergence with test compounds formulated in a non-phytotoxic solvent mixture which included a surfactant. Plants ranged in height from 2 to 18 cm (1- to 4-leaf stage).
(§2) Treated plants and controls were maintained in a greenhouse for 13 to 15 days, after which time all species were compared to controls and visually evaluated. Plant response ratings, summarized in Table B, are based on a scale of 0 to 100 where 0 is no effect and 100 is complete control. A dash (-) response means no test result.

[2] = test system: yellow nutsedge (Cyperus esculentus)
Text: as §1, §2

[3] = test system: large crabgrass (Digitaria sanguinalis)
Text: as §1, §2

[4] = test system: downy bromegrass (Bromus tectorum)
Text: as §1, §2

corn (Zea mays) = test system: corn (Zea mays)
Text: as §1, §2

[5] = test system: pigweed (Amaranthus retroflexus)
Text: as §1, §2

[6] = test system: woolly cupgrass (Eriochloa villosa)
Text: as §1, §2

[7] = test system: morningglory (Ipomoea coccinea)
Text: as §1, §2

[8] = test system: bermudagrass (Cynodon dactylon)
Text: as §1, §2

[9] = test system: velvetleaf (Abutilon theophrasti)
Text: as §1, §2

wild oat (Avena fatua) = test system: wild oat (Avena fatua)
Text: as §1, §2

soybean (Glycine max) = test system: soybean (Glycine max)
Text: as §1, §2

[10] = test system: green foxtail (Setaria viridis)
Text: as §1, §2

[11] = test system: johnsongrass (Sorghum halepense)
Text: as §1, §2

[12] = test system: giant foxtail (Setaria faberii)
Text: as §1, §2

[13] = test system: cocklebur (Xanthium strumarium)
Text: as §1, §2

[14] = test system: goosegrass (Eleusine indica)
Text: as §1, §2

barley (Hordeum vulgare) = test system: barley (Hordeum vulgare)
Text: as §1, §2

[15] = test system: wheat (Triticum aestivum)
Text: as §1, §2

kochia (Kochia scoparia) = test system: kochia (Kochia scoparia)
Text: as §1, §2

[16] = test system: deadnettle (Lamium amplexicaule)
Text: as §1, §2

[17] = test system: ragweed (Ambrosia elatior)
Text: as §1, §2

[18] = test system: Surinam grass (Brachiaria decumbens)
Text: as §1, §2

COCCn1c(-c2cc(F)cc(F)c2)c(Cl)nc(C(=O)C2=C(O)CCCC2=O)c1=O [Compound 6, 5-chloro-6-(3,5-difluorophenyl)-3-[(2-hydroxy-6-oxo-1-cyclohexen-1-yl)carbonyl]-1-(2-methoxyethyl)-2(1H)-pyrazinone]
Plant response rating, Blackgrass ([1]; 31 g ai/ha): 50 | Plant response rating, Blackgrass ([1]; 62 g ai/ha): 55 | Plant response rating, Blackgrass ([1]; 125 g ai/ha): 60 | Plant response rating, Blackgrass ([1]; 250 g ai/ha): 60 | Plant response rating, Nutsedge, Yellow ([2]; 31 g ai/ha): 40 | Plant response rating, Nutsedge, Yellow ([2]; 62 g ai/ha): 45 | Plant response rating, Nutsedge, Yellow ([2]; 125 g ai/ha): 80 | Plant response rating, Nutsedge, Yellow ([2]; 250 g ai/ha): 80 | Plant response rating, Crabgrass, Large ([3]; 31 g ai/ha): 75 | Plant response rating, Crabgrass, Large ([3]; 62 g ai/ha): 85 | Plant response rating, Crabgrass, Large ([3]; 125 g ai/ha): 95 | Plant response rating, Crabgrass, Large ([3]; 250 g ai/ha): 98 | Plant response rating, Bromegrass, Downy ([4]; 31 g ai/ha): 15 | Plant response rating, Bromegrass, Downy ([4]; 62 g ai/ha): 35 | Plant response rating, Bromegrass, Downy ([4]; 125 g ai/ha): 50 | Plant response rating, Bromegrass, Downy ([4]; 250 g ai/ha): 60 | Plant response rating, Corn (corn (Zea mays); 31 g ai/ha): 45 | Plant response rating, Corn (corn (Zea mays); 62 g ai/ha): 45 | Plant response rating, Corn (corn (Zea mays); 125 g ai/ha): 65 | Plant response rating, Corn (corn (Zea mays); 250 g ai/ha): 80 | Plant response rating, Pigweed ([5]; 31 g ai/ha): 80 | Plant response rating, Pigweed ([5]; 62 g ai/ha): 95 | Plant response rating, Pigweed ([5]; 125 g ai/ha): 98 | Plant response rating, Pigweed ([5]; 250 g ai/ha): 98 | Plant response rating, Cupgrass, Woolly ([6]; 31 g ai/ha): 90 | Plant response rating, Cupgrass, Woolly ([6]; 62 g ai/ha): 100 | Plant response rating, Cupgrass, Woolly ([6]; 125 g ai/ha): 100 | Plant response rating, Cupgrass, Woolly ([6]; 250 g ai/ha): 100 | Plant response rating, Morningglory ([7]; 31 g ai/ha): 95 | Plant response rating, Morningglory ([7]; 62 g ai/ha): 100 | Plant response rating, Morningglory ([7]; 125 g ai/ha): 100 | Plant response rating, Morningglory ([7]; 250 g ai/ha): 100 | Plant response rating, Bermudagrass ([8]; 31 g ai/ha): 5 | Plant response rating, Bermudagrass ([8]; 62 g ai/ha): 45 | Plant response rating, Bermudagrass ([8]; 125 g ai/ha): 75 | Plant response rating, Bermudagrass ([8]; 250 g ai/ha): 95 | Plant response rating, Velvetleaf ([9]; 31 g ai/ha): 60 | Plant response rating, Velvetleaf ([9]; 62 g ai/ha): 65 | Plant response rating, Velvetleaf ([9]; 125 g ai/ha): 80 | Plant response rating, Velvetleaf ([9]; 250 g ai/ha): 80 | Plant response rating, Oat, Wild (wild oat (Avena fatua); 31 g ai/ha): 10 | Plant response rating, Oat, Wild (wild oat (Avena fatua); 62 g ai/ha): 40 | Plant response rating, Oat, Wild (wild oat (Avena fatua); 125 g ai/ha): 40 | Plant response rating, Oat, Wild (wild oat (Avena fatua); 250 g ai/ha): 90 | Plant response rating, Soybean (soybean (Glycine max); 31 g ai/ha): 45 | Plant response rating, Soybean (soybean (Glycine max); 62 g ai/ha): 65 | Plant response rating, Soybean (soybean (Glycine max); 125 g ai/ha): 70 | Plant response rating, Soybean (soybean (Glycine max); 250 g ai/ha): 95 | Plant response rating, Foxtail, Green ([10]; 31 g ai/ha): 50 | Plant response rating, Foxtail, Green ([10]; 62 g ai/ha): 70 | Plant response rating, Foxtail, Green ([10]; 125 g ai/ha): 85 | Plant response rating, Foxtail, Green ([10]; 250 g ai/ha): 98 | Plant response rating, Johnsongrass ([11]; 31 g ai/ha): 80 | Plant response rating, Johnsongrass ([11]; 62 g ai/ha): 80 | Plant response rating, Johnsongrass ([11]; 125 g ai/ha): 85 | Plant response rating, Johnsongrass ([11]; 250 g ai/ha): 100 | Plant response rating, Foxtail, Giant ([12]; 31 g ai/ha): 65 | Plant response rating, Foxtail, Giant ([12]; 62 g ai/ha): 65 | Plant response rating, Foxtail, Giant ([12]; 125 g ai/ha): 80 | Plant response rating, Foxtail, Giant ([12]; 250 g ai/ha): 95 | Plant response rating, Cocklebur ([13]; 31 g ai/ha): 50 | Plant response rating, Cocklebur ([13]; 62 g ai/ha): 75 | Plant response rating, Cocklebur ([13]; 125 g ai/ha): 95 | Plant response rating, Cocklebur ([13]; 250 g ai/ha): 100 | Plant response rating, Goosegrass ([14]; 31 g ai/ha): 75 | Plant response rating, Goosegrass ([14]; 62 g ai/ha): 80 | Plant response rating, Goosegrass ([14]; 125 g ai/ha): 95 | Plant response rating, Goosegrass ([14]; 250 g ai/ha): 98 | Plant response rating, Barley (barley (Hordeum vulgare); 31 g ai/ha): 25 | Plant response rating, Barley (barley (Hordeum vulgare); 62 g ai/ha): 35 | Plant response rating, Barley (barley (Hordeum vulgare); 125 g ai/ha): 50 | Plant response rating, Barley (barley (Hordeum vulgare); 250 g ai/ha): 70 | Plant response rating, Wheat ([15]; 31 g ai/ha): 45 | Plant response rating, Wheat ([15]; 62 g ai/ha): 45 | Plant response rating, Wheat ([15]; 125 g ai/ha): 50 | Plant response rating, Wheat ([15]; 250 g ai/ha): 60 | Plant response rating, Kochia (kochia (Kochia scoparia); 31 g ai/ha): 5 | Plant response rating, Kochia (kochia (Kochia scoparia); 62 g ai/ha): 40 | Plant response rating, Kochia (kochia (Kochia scoparia); 125 g ai/ha): 40 | Plant response rating, Kochia (kochia (Kochia scoparia); 250 g ai/ha): 45 | Plant response rating, Deadnettle ([16]; 31 g ai/ha): 85 | Plant response rating, Deadnettle ([16]; 62 g ai/ha): 85 | Plant response rating, Deadnettle ([16]; 125 g ai/ha): 85 | Plant response rating, Deadnettle ([16]; 250 g ai/ha): 100 | Plant response rating, Ragweed ([17]; 31 g ai/ha): 40 | Plant response rating, Ragweed ([17]; 62 g ai/ha): 60 | Plant response rating, Ragweed ([17]; 125 g ai/ha): 65 | Plant response rating, Ragweed ([17]; 250 g ai/ha): 98 | Plant response rating, Surinam Grass ([18]; 31 g ai/ha): 75 | Plant response rating, Surinam Grass ([18]; 62 g ai/ha): 75 | Plant response rating, Surinam Grass ([18]; 125 g ai/ha): 85 | Plant response rating, Surinam Grass ([18]; 250 g ai/ha): 98
